Where two headings read alike, the source gives them in different places. *1 amine or outer side, *2 acyl side, *3 side chain or, on linkers, in order; H or OH if unused. Where a SMILES comes first, the peptide text is derived from it. Bridges are numbered along the chain shown (N, C = ends). [ ]: non-standard residue; d: D form. The star is where a group is joined. ξ: configuration not given here. NMeAla(4-thiazolyl) = CN[C@@H](Cc1cscn1)C(=O)O; NMePhe(3-Cl) = CN[C@@H](Cc1cccc(Cl)c1)C(=O)O; NMehPhe = CN[C@@H](CCc1ccccc1)C(=O)O; hhPhe = N[C@@H](CCCc1ccccc1)C(=O)O; NMeF = CN[C@@H](Cc1ccccc1)C(=O)O; NMeGABA = CN(CCCC(=O)[*:2])[*:1]; NMeI = CC[C@H](C)[C@H](NC)C(=O)O; hPhe = N[C@@H](CCc1ccccc1)C(=O)O; NMeD = CN[C@@H](CC(=O)O)C(=O)O; NMeL = CN[C@@H](CC(C)C)C(=O)O; NMeV = CN[C@H](C(=O)O)C(C)C; NMeA = CN[C@@H](C)C(=O)O; Piperidide = C1CCN(*)CC1; dNMeA = CN[C@H](C)C(=O)O; NPrGly = CCCNCC(=O)O; X2 = Fc1cncc(C*)c1; Bn = c1ccc(C*)cc1; ξS = NC(CO)C(=O)O; Sar = CNCC(=O)O; tBu = CC(C)(C)*
Legend:
in vitro = settings: human

Structure (SMILES) | Caco-2 (Caco-2) [cm/s] | Papp (in vitro; Caco-2, Caco-2 (cm/sec)) [nm/s] | other results
CC(C)C[C@H]1C(=O)N[C@@H]([C@@H](C)O)C(=O)N(C)CC(=O)N(C)[C@@H](C(C)C)C(=O)N[C@@H](Cc2ccccc2)C(=O)N(C)[C@@H](Cc2cccc(Cl)c2)C(=O)N(C)[C@@H](CC(C)C)C(=O)N(C)[C@H](C(=O)N2CCCCC2)CC(=O)N(C)[C@H](C)C(=O)N[C@@H](Cc2ccccc2)C(=O)N[C@@H](COC(C)(C)C)C(=O)N1C [pd167] ([dNMeA]FS(tBu)[NMeL]T[Sar][NMeV]F[NMePhe(3-Cl)][NMeL][NMeD]-Piperidide; lactam N-11) | 1.7e-06 | 17 | –
CC(C)C[C@@H]1NC(=O)[C@H](Cc2ccccc2)N(C)C(=O)[C@H](C)N(C)C(=O)C[C@@H](C(=O)N2CCCCC2)NC(=O)[C@H](CC(C)C)N(C)C(=O)[C@H](Cc2ccccc2)N(C)C(=O)[C@H](Cc2ccccc2)NC(=O)[C@H](Cc2cscn2)N(C)C(=O)[C@H](C)N(C)C(=O)[C@H](CC(C)C)N(C)C(=O)[C@H]([C@@H](C)O)NC1=O [pd238] ([NMeA][NMeF]LT[NMeL][NMeA][NMeAla(4-thiazolyl)]F[NMeF][NMeL]D-Piperidide; lactam N-11) | – | – | Caco-2 (cm/sec) Papp (Caco-2; human): 8.8e-08 cm/s; Papp (in vitro; Caco-2, Caco-2 (cm/sec) Papp): 0.96 nm/s
CC(C)C[C@H]1C(=O)N[C@@H](COC(C)(C)C)C(=O)N(C)[C@@H](Cc2ccccc2)C(=O)N(C)[C@@H](C)C(=O)N[C@H](C(=O)N2CCCCC2)CC(=O)N[C@H](C(C)C)C(=O)N(C)[C@@H](Cc2ccccc2)C(=O)N[C@@H](CCCc2ccccc2)C(=O)N(C)[C@@H](CC(C)C)C(=O)N[C@@H]([C@@H](C)O)C(=O)N(C)CC(=O)N1C [pd192] ([dV][NMeF][hhPhe][NMeL]T[Sar][NMeL]S(tBu)[NMeF][NMeA]D-Piperidide; lactam N-11) | 1.1e-06 | 11 | –
CC(C)C[C@H]1C(=O)N(C)[C@@H](C(C)C)C(=O)N[C@@H](Cc2ccccc2)C(=O)N[C@H](C(=O)N(C)[C@@H](Cc2ccccc2)C(=O)N[C@@H](C)C(=O)N2CCCCC2)CC(=O)N(C)CCCC(=O)N[C@@H](C(C)C)C(=O)N(C)[C@@H](CC(C)C)C(=O)N[C@@H]([C@@H](C)O)C(=O)N(C)[C@@H](Cc2ccccc2)C(=O)NCC(=O)N1C [pd198] ([NMeGABA]V[NMeL]T[NMeF]G[NMeL][NMeV]FD[NMeF]A-Piperidide; lactam N-10) | 2.7e-06 | 27 | –
CC(C)C[C@H]1C(=O)N[C@@H]([C@@H](C)O)C(=O)N(C)CC(=O)N(C)[C@@H](C(C)C)C(=O)N[C@@H](Cc2ccccc2)C(=O)N(C)[C@@H](Cc2cccc(Cl)c2)C(=O)N(C)[C@@H](CC(C)C)C(=O)N(C)[C@H](C(=O)N2CCCCC2)CC(=O)N2CCC[C@@H]2C(=O)N[C@@H](Cc2ccccc2)C(=O)N[C@@H](COC(C)(C)C)C(=O)N1C [pd163] ([dP]FS(tBu)[NMeL]T[Sar][NMeV]F[NMePhe(3-Cl)][NMeL][NMeD]-Piperidide; lactam N-11) | 1.7e-06 | 17 | –
CC(C)C[C@H]1C(=O)N[C@@H](COC(C)(C)C)C(=O)N(C)[C@@H](Cc2ccccc2)C(=O)N(C)[C@@H](C(C)C)C(=O)N[C@H](C(=O)N2CCCCC2)CC(=O)N[C@H](C(C)C)C(=O)N(C)[C@@H](Cc2ccccc2)C(=O)N[C@@H](COCc2cncc(F)c2)C(=O)N(C)[C@@H](CC(C)C)C(=O)N[C@@H]([C@@H](C)O)C(=O)N(C)CC(=O)N1C [pd180] ([dV][NMeF]S(X2)[NMeL]T[Sar][NMeL]S(tBu)[NMeF][NMeV]D-Piperidide; lactam N-11) | – | 24 | Caco-2 (cm/sec) (Caco-2): 2 4E−06 cm/sec
CC(C)C[C@H]1C(=O)N(C)[C@@H](CCc2ccccc2)C(=O)N[C@@H](COC(C)(C)C)C(=O)N(C)[C@@H](C)C(=O)N[C@H](C(=O)N2CCCCC2)CC(=O)N(C)[C@@H](C)C(=O)N(C)[C@@H](Cc2ccccc2)C(=O)N[C@@H](CCc2ccccc2)C(=O)N(C)[C@@H](CC(C)C)C(=O)N[C@@H]([C@@H](C)O)C(=O)N(C)CC(=O)N1C [pd184] ([NMeA][NMeF][hPhe][NMeL]T[Sar][NMeL][NMehPhe]S(tBu)[NMeA]D-Piperidide; lactam N-11) | 1.2e-06 | 12 | –
CC(C)C[C@H]1C(=O)N[C@@H](CCCc2ccccc2)C(=O)N(C)[C@@H](Cc2ccccc2)C(=O)N(C)[C@@H](C(C)C)C(=O)N[C@H](C(=O)N2CCCCC2)CC(=O)N[C@H](C)C(=O)N(C)[C@@H](Cc2ccccc2)C(=O)N[C@@H](C(C)C)C(=O)N(C)[C@@H](CC(C)C)C(=O)N[C@@H]([C@@H](C)O)C(=O)N(C)CC(=O)N1C [pd193] ([dA][NMeF]V[NMeL]T[Sar][NMeL][hhPhe][NMeF][NMeV]D-Piperidide; lactam N-11) | 1e-06 | 10 | –
CC(C)C[C@H]1C(=O)N[C@@H]([C@@H](C)O)C(=O)N(C)CC(=O)N(C)[C@@H](C(C)C)C(=O)N[C@@H](Cc2ccccc2)C(=O)N(C)[C@@H](Cc2cccc(Cl)c2)C(=O)N(C)[C@@H](CC(C)C)C(=O)N(C)[C@H](C(=O)N2CCCCC2)CC(=O)N2CCC[C@H]2C(=O)N[C@@H](Cc2ccccc2)C(=O)N[C@@H](COC(C)(C)C)C(=O)N1C [pd162] (PFS(tBu)[NMeL]T[Sar][NMeV]F[NMePhe(3-Cl)][NMeL][NMeD]-Piperidide; lactam N-11) | 1.2e-06 | 12 | –
CC[C@H](C)[C@@H]1NC(=O)[C@H](Cc2ccccc2)N(C)C(=O)CN(C)C(=O)C[C@@H](C(=O)N2CCCCC2)NC(=O)[C@H](C)N(C)C(=O)[C@H](CCCc2ccccc2)NC(=O)[C@H](CC(C)C)N(C)C(=O)[C@H](Cc2ccccc2)N(C)C(=O)CN(C)C(=O)[C@H]([C@@H](C)O)NC(=O)[C@H](CC(C)C)N(C)C1=O [pd190] ([Sar][NMeF]I[NMeL]T[Sar][NMeF][NMeL][hhPhe][NMeA]D-Piperidide; lactam N-11) | 1.5e-06 | 15 | –
CC(C)C[C@H]1C(=O)N[C@@H](COC(C)(C)C)C(=O)N(C)[C@@H](Cc2ccccc2)C(=O)N(C)[C@@H](C(C)C)C(=O)N[C@H](C(=O)N2CCCCC2)CC(=O)N[C@H](C(C)C)C(=O)N(C)[C@@H](Cc2ccccc2)C(=O)N[C@@H](COc2cccc(Cl)c2)C(=O)N(C)[C@@H](C)C(=O)N[C@@H]([C@@H](C)O)C(=O)N(C)CC(=O)N1C [pd187] | 1.9e-06 | 19 | –
CC[C@H](C)[C@@H]1NC(=O)[C@H](Cc2ccccc2)N(C)C(=O)CN(C)C(=O)C[C@@H](C(=O)N2CCCCC2)NC(=O)[C@H]([C@@H](C)CC)N(C)C(=O)C(COCc2ccccc2)NC(=O)[C@H](CC(C)C)N(C)C(=O)[C@H](Cc2ccccc2)N(C)C(=O)CN(C)C(=O)[C@H]([C@@H](C)O)NC(=O)[C@H](CC(C)C)N(C)C1=O (stereo partly drawn) [pd178] ([Sar][NMeF]I[NMeL]T[Sar][NMeF][NMeL][ξS](Bn)[NMeI]D-Piperidide; lactam N-11) | 2.5e-06 | 25 | –
CC[C@H](C)[C@H]1C(=O)N[C@@H]([C@@H](C)O)C(=O)N(C)CC(=O)N(C)[C@@H](CC(C)C)C(=O)N[C@H](C(=O)N2CCCCC2)CC(=O)N(C)[C@@H](C)C(=O)NC(COc2cccc(Cl)c2)C(=O)N(C)[C@@H](CC(C)C)C(=O)N(C)[C@@H](Cc2ccccc2)C(=O)N[C@@H](C)C(=O)N(C)[C@@H](Cc2ccccc2)C(=O)N1C (stereo partly shown) [pd188] | 1.3e-06 | 18 | Caco-2 (Caco-2; human): 1.3e-06 cm/s
CC(C)C[C@H]1C(=O)N(C)[C@@H](Cc2ccccc2)C(=O)N[C@H](C(=O)N2CCCCC2)CC(=O)N(C)[C@@H](C(C)C)C(=O)N[C@@H](C)C(=O)N(C)[C@@H](Cc2ccccc2)C(=O)N(C)[C@@H](CC(C)C)C(=O)N(C)CC(=O)N[C@@H]([C@@H](C)O)C(=O)N(C)[C@@H](C(C)C)C(=O)N[C@@H](CCc2ccccc2)C(=O)N1C [pd182] ([NMeV]A[NMeF][NMeL][Sar]T[NMeV][hPhe][NMeL][NMeF]D-Piperidide; lactam N-11) | 2.6e-06 | 26 | –
CCCN1CC(=O)N(C)[C@@H](CC(C)C)C(=O)N[C@@H](COC(C)(C)C)C(=O)N(C)[C@@H](Cc2ccccc2)C(=O)N(C)[C@@H](Cc2ccccc2)C(=O)N[C@H](C(=O)N2CCCCC2)CC(=O)N[C@H](C)C(=O)N(C)[C@@H](Cc2ccccc2)C(=O)N[C@@H](C(C)C)C(=O)N(C)[C@@H](CC(C)C)C(=O)N[C@@H]([C@@H](C)O)C1=O [pd194] ([dA][NMeF]V[NMeL]T[NPrGly][NMeL]S(tBu)[NMeF][NMeF]D-Piperidide; lactam N-11) | 5.3e-06 | 53 | –
CC(C)C[C@H]1C(=O)N[C@@H]([C@@H](C)O)C(=O)N(C)CC(=O)N(C)[C@@H](Cc2ccccc2)C(=O)N(C)[C@@H](CC(C)C)C(=O)N[C@@H](COC(C)(C)C)C(=O)N(C)[C@@H](CC(C)C)C(=O)N[C@H](C(=O)N2CCCCC2)CC(=O)N(C)CC(=O)N(C)[C@@H](Cc2ccccc2)C(=O)N[C@@H](COCc2ccccc2)C(=O)N1C [pd177] ([Sar][NMeF]S(Bn)[NMeL]T[Sar][NMeF][NMeL]S(tBu)[NMeL]D-Piperidide; lactam N-11) | 3e-06 | 30 | –
CC[C@H](C)[C@H]1C(=O)N[C@H](C(=O)N2CCCCC2)CC(=O)N(C)CC(=O)N(C)[C@@H](Cc2ccccc2)C(=O)N[C@@H](CCCc2ccccc2)C(=O)N(C)[C@@H](CC(C)C)C(=O)N[C@@H]([C@@H](C)O)C(=O)N(C)CC(=O)N(C)[C@@H](Cc2ccccc2)C(=O)N(C)[C@@H](CC(C)C)C(=O)N[C@@H](COC(C)(C)C)C(=O)N1C [pd189] ([Sar][NMeF][hhPhe][NMeL]T[Sar][NMeF][NMeL]S(tBu)[NMeI]D-Piperidide; lactam N-11) | 1.8e-06 | 18 | –
CC[C@H](C)[C@H]1C(=O)N[C@@H]([C@@H](C)O)C(=O)N(C)CC(=O)N(C)[C@@H](CC(C)C)C(=O)N[C@H](C(=O)N2CCCCC2)CC(=O)N(C)[C@@H](C(C)C)C(=O)N[C@@H](COCc2cncc(F)c2)C(=O)N(C)[C@@H](CC(C)C)C(=O)N(C)[C@@H](Cc2ccccc2)C(=O)N[C@@H](CC(C)C)C(=O)N(C)[C@@H](Cc2ccccc2)C(=O)N1C [pd181] ([NMeV]S(X2)[NMeL][NMeF]L[NMeF][NMeI]T[Sar][NMeL]D-Piperidide; lactam N-11) | 1.1e-06 | 11 | –
